Laboratory results reported in patent US9162992B2, “Compounds and compositions for treatment of breathing control disorders or diseases” (GALLEON PHARMACEUTICALS, INC., priority 2010, dated 2015).
Where “and” joins values, the source holds several entries; their conditions need not be identical. Equal entries are not always repeated. Structures can show the parent of a compound that is named as a salt. Values belong to the compound of their own block, whether it stands above or below them.

Assays:
[1] = biological target: T1, BK potassium channel expressed in GH3 cells (Rattus norvegicus, UniProt Q62976); assay: BK potassium channel current in GH3 cells, inside-out patches; type: cell-based; details: Almirite 1 (mM as printed)
T1 construct: endogenous in cells; host or cells: GH3 cells
T1 sequence (Q62976 whole entry): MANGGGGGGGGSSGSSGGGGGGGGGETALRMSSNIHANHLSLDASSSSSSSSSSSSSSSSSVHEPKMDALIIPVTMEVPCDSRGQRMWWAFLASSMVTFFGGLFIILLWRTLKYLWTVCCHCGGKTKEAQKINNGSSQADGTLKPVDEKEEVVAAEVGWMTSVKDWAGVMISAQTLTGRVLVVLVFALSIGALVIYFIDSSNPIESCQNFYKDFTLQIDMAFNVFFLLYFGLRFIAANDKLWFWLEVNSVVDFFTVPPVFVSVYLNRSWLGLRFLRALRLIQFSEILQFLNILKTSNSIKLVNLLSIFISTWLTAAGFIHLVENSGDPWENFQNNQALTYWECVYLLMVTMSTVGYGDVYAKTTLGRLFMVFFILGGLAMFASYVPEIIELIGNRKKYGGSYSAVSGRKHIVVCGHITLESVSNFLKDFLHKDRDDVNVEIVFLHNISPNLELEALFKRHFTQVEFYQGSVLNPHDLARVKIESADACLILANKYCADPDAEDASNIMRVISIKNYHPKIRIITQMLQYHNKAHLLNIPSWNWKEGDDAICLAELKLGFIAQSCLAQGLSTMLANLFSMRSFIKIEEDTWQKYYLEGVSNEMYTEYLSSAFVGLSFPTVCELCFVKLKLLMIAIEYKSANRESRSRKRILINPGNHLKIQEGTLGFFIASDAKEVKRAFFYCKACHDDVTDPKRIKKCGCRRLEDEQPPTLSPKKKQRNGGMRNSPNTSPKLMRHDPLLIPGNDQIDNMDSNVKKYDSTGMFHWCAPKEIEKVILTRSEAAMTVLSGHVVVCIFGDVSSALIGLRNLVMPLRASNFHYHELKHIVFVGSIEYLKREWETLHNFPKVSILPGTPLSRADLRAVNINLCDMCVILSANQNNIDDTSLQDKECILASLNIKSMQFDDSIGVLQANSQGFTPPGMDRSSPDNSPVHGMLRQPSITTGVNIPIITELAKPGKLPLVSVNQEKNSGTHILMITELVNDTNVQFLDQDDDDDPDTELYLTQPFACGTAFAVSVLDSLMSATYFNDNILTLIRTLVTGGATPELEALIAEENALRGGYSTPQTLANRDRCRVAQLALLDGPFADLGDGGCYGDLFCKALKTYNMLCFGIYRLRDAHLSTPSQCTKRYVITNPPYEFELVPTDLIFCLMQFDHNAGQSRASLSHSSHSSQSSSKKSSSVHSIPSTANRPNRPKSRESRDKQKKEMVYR
Experimental: Stock solutions of the test article were prepared in dimethylsulfoxide (DMSO) and stored frozen. Test article concentrations were prepared fresh daily by diluting stock solutions into a physiological saline solution (composition in mM): KCl, 125; CaCl2, 8.5; HEPES, 10; EGTA, 11.25; pH adjusted to 7.2 with KOH (prepared weekly and refrigerated until used). All test solutions contained 0.1% DMSO.
GH3 cells were grown in culture using standard procedures. Ionic currents were measured from inside-out patches of GH3 cells. Channel activity was monitored in symmetrical K^+ conditions with a holding potential of −60 mV. Activities before and in the presence of each concentration of test articles were recorded for ≧3 minutes, respectively.
Data acquisition and analyses were performed using the suite of pCLAMP (Ver. 8.2) programs (MDS-AT, Sunnyvale, Calif. Percent inhibition by test article was calculated using the following equation: 100*(NPocontrol−NPotest)/NPocontrol Results

[2] = biological target: T2, rat KCNK3/TASK-1 (Rattus norvegicus, UniProt O54912); assay: Thallium flux through rat TASK-1 (KCNK3-CHO cells); type: cell-based; details: Tl+ flux; 3 nM to 30 μM; read-out: rTASK-1 IC50
T2 construct: expressed in transfected cells; host or cells: CHO cells (tetracycline-inducible)
T2 sequence (O54912 whole entry): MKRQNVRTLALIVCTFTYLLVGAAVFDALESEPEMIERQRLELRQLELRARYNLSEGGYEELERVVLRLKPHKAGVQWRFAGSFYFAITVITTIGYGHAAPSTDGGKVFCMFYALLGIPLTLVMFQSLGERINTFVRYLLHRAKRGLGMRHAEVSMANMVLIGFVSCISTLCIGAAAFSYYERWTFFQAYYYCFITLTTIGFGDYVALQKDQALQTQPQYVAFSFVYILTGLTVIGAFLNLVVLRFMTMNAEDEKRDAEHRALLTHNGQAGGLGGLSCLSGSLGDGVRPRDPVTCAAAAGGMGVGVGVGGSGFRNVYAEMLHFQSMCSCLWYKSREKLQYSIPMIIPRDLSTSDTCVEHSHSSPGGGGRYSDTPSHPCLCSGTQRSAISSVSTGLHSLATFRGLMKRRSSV
Experimental: (§1) CHO cells expressing recombinant tetracycline-inducible rat KCNK3/TASK-1 (KCNK3-CHO cells) were plated in poly-D-lysine coated 384-well plates at a density of 6,000 cells/well (50 μl/well of 120,000 cells/mL) and allowed to incubate for 72 hrs in the presence of 5% CO2 and 1 μg/mL tetracycline at 30° C. HEK cells expressing recombinant tetracycline-inducible human KCNK9/TASK-3 (KCNK9-HEK cells) were plated at a density of 15,000 cells per well (50 μl/well, 300,000 cells/mL) and incubated overnight at 37° C. and 5% CO2 in the presence of 1 μg/mL tetracycline.
(§2) Drug plates were generated from 10 mM 100% DMSO mother plates. Compounds were transferred to 384-well drug plates and titrated with sequential 1:3 dilutions in 100% DMSO for a total of 9 dilutions. A dilution plate is made by taking 2.4 μl from the mother plate and adding to […] of assay buffer for a 12% DMSO dilution plate. From this dilution plate, a final daughter plate is generated by taking 1 μA of the dilution plate and adding to 40 μA of assay buffer for a final DMSO concentration of 0.3%. Each compound was evaluated in duplicate and the concentration range evaluated was 3 nM to 30 μM.
(§3) When thallium was added to extracellular solution with a stimulus to open channels, Tl^+ flowed down its concentration gradient into the cells and channel activity was detected with an indicator dye, FluxOR™, that increased in cytosolic fluorescence. The FluxOR™ indicator dye was loaded into cells as a membrane permeable acetoxymethyl ester. On the day of each assay, FluxOR™ assay buffer was made fresh from Hank's Balanced Saline Solution (HBSS) buffered with 20 mM HEPES and pH adjusted to 7.4 with NaOH. Dye loading solution was prepared per manufacturer's instructions, and 25 μl of dye solution applied to each well with a multidropper after plating medium was removed manually from cells. Dye was allowed to load for 90 minutes at room temperature in the dark.
(§4) After the 90 min dye loading incubation and subsequent manual dye removal, 24 μl of the drug daughter plate was transfer to cell plates by a cybi-well system and then incubated at room temperature for 20 minutes to allow for equilibration within wells. Stimulation buffer was prepared from 5× chloride-free buffer, thallium, and potassium sulfate containing 5 times the desired final assay concentration of 10 mM K^+ 2.8 mM Tl^+. Cell plates were then transferred to an FDSS 6000 kinetic imaging plate reader (Hamamatsu). Fluorescence at 525 nm (excitation 488 nm) was measured for 10 seconds at 1 Hz to establish baseline for the entire plate. After baseline was established, 6 μl/well of stimulation buffer was added and fluorescence signal recorded for another 140 seconds.
(§5) From the fluorescence signals in the absence and presence of Galleon compounds, Inhibitory concentration curves were plotted and IC50 values were estimated using a curve fitting algorithm.

[3] = biological target: T3, human KCNK9/TASK-3 (Homo sapiens, UniProt Q9NPC2); assay: Thallium flux through human TASK-3 (KCNK9-HEK cells); type: cell-based; details: Tl+ flux; 3 nM to 30 μM; read-out: hTASK-3 IC50
T3 construct: expressed in transfected cells; host or cells: HEK cells (tetracycline-inducible)
T3 sequence (Q9NPC2 whole entry): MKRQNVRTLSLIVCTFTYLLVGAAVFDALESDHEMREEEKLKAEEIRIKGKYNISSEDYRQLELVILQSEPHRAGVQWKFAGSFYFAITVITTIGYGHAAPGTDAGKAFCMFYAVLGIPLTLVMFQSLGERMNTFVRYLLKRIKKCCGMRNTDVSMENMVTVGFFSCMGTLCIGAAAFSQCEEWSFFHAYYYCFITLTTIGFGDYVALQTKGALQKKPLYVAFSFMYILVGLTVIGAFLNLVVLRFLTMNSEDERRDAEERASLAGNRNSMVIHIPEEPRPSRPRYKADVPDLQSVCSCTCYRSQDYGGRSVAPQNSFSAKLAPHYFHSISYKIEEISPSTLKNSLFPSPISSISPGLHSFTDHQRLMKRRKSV
Experimental: as §1, §2, §3, §4, §5

[4] = system: spontaneously breathing rats; assay: Minute ventilation (MV) and cardiovascular parameters in naive rats; type: in vivo, rat; set-up: unit not given here
Experimental: All surgical procedures were performed under anesthesia induced by 2% isoflurane in compressed medical grade air. With rats in supine position, the right femoral vein was catheterized using polyethylene tubing (PE-50). This catheter was used for fluid and drug administration. Simultaneously, the right femoral artery was also catheterized for monitoring blood pressure and heart rate. In order to measure the respiratory parameters in spontaneously breathing rats, trachea was intubated using 13 gauge tracheal tube (2.5 mm ID, Instech Solomon, Pa.).
After establishing a stable base-line at 1.5% isoflurane, compounds (typically at a dose of 1 mpk) were administered IV, and ventilatory parameters were generated from spontaneously breathing rats, along with cardiovascular output (mean arterial pressure (MAP) and heart rate). Maximum peak minute ventilatory (MV) responses (MPR), along with changes in minute ventilation versus baseline (AMV) were obtained as shown in the tables below.

[5] = Solubility in solvents and IV solutions; type: physicochemical; details: water, thermodynamic from solid, Solubility
Experimental: The solubility of (XXXXVI) and XXXV was evaluated in various solvents and IV solutions. Due to limits on the API supply at the time the study was conducted, most of the solvent systems were evaluated to a level of only 100 mg/mL even if the solution was not saturated at this level. Only in water was an attempt made to reach saturation solubility, regardless of how high that solubility might be. Solubility of the salt/free base in each solvent was evaluated in duplicate.
For solubility in water, drug was added with intermittent shaking to ensure that excess undissolved drug is present indicating saturation […]. The filtrates were diluted appropriately and analyzed for (XXXV) concentration by HPLC.

[6] = Table 8, 1 mpk, 20% HPβCD, pH 4
[7] = Table 8, 1 mpk, 20% HPβCD, pH 6

- Inhibition (%), Average [1]: 94.7%
- NPo, Average [1]: 0.0010
- Inhibition (%) ([1]; single patch): 97.9% and 91.5%
- NPo (total channel open probability) ([1]; single patch): 0.0009 and 0.0011
SMILES: C=CCNc1nc(NCC=C)nc(N2CCN(C(c3ccc(F)cc3)c3ccc(F)cc3)CC2)n1 [Almirite, almitrine, reference compound]

- IC50 [2]: 0.6 µM
- IC50 [3]: > 30 µM
SMILES: CCCNc1nc(NCCC)nc(NN(C)C)n1 [XLVI, N-(4,6-Bis-n-propylamino-[1,3,5]triazin-2-yl)-N′,N′-dimethylhydrazine]

SMILES: CCCNc1nc2c(c(N3C4CCC3CC(O)C4)n1)CCN2C (stereo not drawn) [CLV, 8-(7-methyl-2-(n-propylamino)-pyrrolidino[2,3-d]pyrimidin-4-yl)-8-azabicyclo[3.2.1]octan-3-ol]
- MV MPR ([4]; 1 mpk IV, 20% HPβCD, pH 4): 170
- MV ΔMV ([4]; 1 mpk IV, 20% HPβCD, pH 4): 57

SMILES: CCCNc1nc(NCC)nc(NOC)n1 [N^2-ethyl-6-(methoxyamino)-N^4-n-propyl-1,3,5-triazine-2,4-diamine]
- MV MPR ([4]; 1 mpk IV, 20% HPβCD, pH 4-6): 208
- MV ΔMV ([4]; 1 mpk IV, 20% HPβCD, pH 4-6): 117

SMILES: CC(C)CNc1nc(NCC(C)C)nc(N2C3CCC2CC(=O)C3)n1 [(1,5)-8-(4,6-bis(isobutylamino)-1,3,5-triazin-2-yl)-8-azabicyclo[3.2.1]octan-3-one]
- MV MPR ([4]; 1 mpk IV, 20% HPβCD, pH 5): 237
- MV ΔMV ([4]; 1 mpk IV, 20% HPβCD, pH 5): 137

SMILES: CCCNc1nc(NCCC)nc(N(C)O)n1 [XLVIII, N-(4,6-Bis-n-propylamino-[1,3,5]triazin-2-yl)-N-methyl-hydroxylamine]
- MV MPR ([4]; 1 mpk IV, 15/65/20, pH 5): 114
- MV ΔMV ([4]; 1 mpk IV, 15/65/20, pH 5): 30.13

SMILES: CCCNc1nc(NCCC)c2c(n1)NCC2 [CXLIX, 2,4-Bis-(n-propyl)amino-7H-pyrrolidino[2,3-d]pyrimidine]
- MV MPR ([4]; 1 mpk IV, 20% HPβCD, pH 4): 175
- MV ΔMV ([4]; 1 mpk IV, 20% HPβCD, pH 4): 93
- MV MPR ([4]; 1 mpk IV, 20% HPβCD, pH 6): 263
- MV ΔMV ([4]; 1 mpk IV, 20% HPβCD, pH 6): 167
- MV DMV [4, 6]: 93
- MV MPR [4, 6]: 175
- MV DMV [4, 7]: 167
- MV MPR [4, 7]: 263

SMILES: CCCNc1nc(NCCC)nc(N(C)OCC2CC2)n1 [XCI, N-(4,6-Bis-n-propylamino-[1,3,5]triazin-2-yl)-O-cyclopropylmethyl-N-methyl-hydroxylamine]
- MV MPR ([4]; 1 mpk IV, 20% HPβCD, pH 4): 261
- MV ΔMV ([4]; 1 mpk IV, 20% HPβCD, pH 4): 152
- MV DMV [4, 6]: 152
- MV MPR [4, 6]: 261

- solubility [5]: ~210 µg/mL
SMILES: CCCNc1nc(NCC2CC2)nc(N(C)OC)n1 [XXV, N-(4-Cyclopropylmethyl)-N-(6-n-propylamino) [1,3,5]triazin-2-yl)-N,O-dimethyl-hydroxylamine hydrochloride]
- MV MPR ([4]; 1 mpk IV, 20% HPβCD, pH 4-6): 257
- MV ΔMV ([4]; 1 mpk IV, 20% HPβCD, pH 4-6): 126

SMILES: CCCNc1nc(NC(C)C)c2c(n1)N(C(C)C)CC2 [CXXXVI, 2-(n-Propyl)amino-4-(i-propyl)amino-7-i-propyl-pyrrolidino[2,3-d]pyrimidine]
- MV MPR ([4]; 1 mpk IV, 20% HPβCD, pH 4): 238
- MV ΔMV ([4]; 1 mpk IV, 20% HPβCD, pH 4): 143

SMILES: CCCNc1nc(NC(C)C)c2ccn(C)c2n1 [N^4-isopropyl-7-methyl-N^2-n-propyl-7H-pyrrolo[2,3-d]pyrimidine-2,4-diamine]
- MV MPR ([4]; 1 mpk IV, 20% HPβCD, pH 5): 402
- MV ΔMV ([4]; 1 mpk IV, 20% HPβCD, pH 5): 320
